# Like-named read-outs stand apart in the source and are kept apart here. Marks after values point to notes of the source that are not given here.
# Experiments:
# Assay type in all cases: physicochemical
# [1] = Use as an emulsifying agent for Teflon (stability of the suspension in water); conditions: 0.100 g surfactant and 0.200 g Teflon 1 μm in water
# Procedure: A solution of 10 ml water, 0.100 g 1-methyl-2-((1H,1H,2H,2H-perfluorooctyl)thio)-1H-imidazolium-2-acrylamido-2-methylpropanesulfonate was dissolved in 10 ml water and 0.200 g Teflon 1 μm (Sigmal-Aldrich) were subsequently added to this solution. A suspension was formed in this process that remained stable for at least 4 hours. After 2 days a white powder had been deposited on the bottom.
# [2] = Determining the solubility in water; conditions: for solubility at 5 min: water, 23 °C, thermodynamic from solid
# Procedure: The suspension was added to the ultrasound bath for 5 minutes and was centrifuged for 20 minutes. The supernatant was then weighed and was rinsed with argon for 5 minutes to remove any possibly dissolved oxygen. […] The experiment was performed at approximately 23° C.
# [3] = Measurement of surface tension at suspended drop (Drop Shape Analyser DSA 25)
# Procedure: The surface tension was determined at suspended drop using a “Drop Shape Analyser DSA 25” of the Krüss corporation. The drop volume at most measurements amounted to approximately 5 μl. […] Each sample was measured a total of ten times. The standard deviations are marked by s in the table shown below. In the measurements at a concentration of 0.05 wt % surfactant, larger drop volumes were used in some cases to obtain a better reproducibility of the measurement results.
# [4] = Determination of the static surface tension in water (Example 10); conditions: mean of 10
# Description: The determination of the static surface tension for 3-(1H,1H,2H,2H-perfluorooctyl)-2-((1H,1H,2H,2H-perfluorooctyl)thio)-1-methyl-1H-imidazolium chloride in water produced the values indicated in the following Table 6 for the surface tension (OFS) in […] at different concentrations c in wt %. The values for OFS represent the mean value from 10 measurements. The standard deviation S [mN/m] for these values is likewise indicated.
# [5] = Solubility in organic solvents
# [6] = surfactant in water 0.05 wt %, n = 10, drop approx. 5 μl, * 8 μl, ** 20 μl
# [7] = surfactant in water 0.5 wt %, n = 10, 24.5-25.1° C.
compound,measurement,setting,value
"C=CC(=O)NC(C)(C)CS(=O)(=O)O.Cn1ccnc1SCCC(F)(F)C(F)(F)C(F)(F)C(F)(F)C(F)(F)C(F)(F)F [Synthesis Example 2, 1-methyl-2-((1H,1H,2H,2H-perfluorooctyl)thio)-1H-imidazolium-2-acrylamido-2-methylpropanesulfonate]",time the Teflon suspension remained stable,[1],at least 4 hours
same,soluble in water (in words),[2],soluble in water
"CS(=O)(=O)O.Cn1ccnc1SCCC(F)(F)C(F)(F)C(F)(F)C(F)(F)C(F)(F)C(F)(F)F [1-methyl-2-((1H,1H,2H,2H-perfluorooctyl)thio)-1H-imidazolium-methanesulfonate]",OFS (surface tension),[3]; [6],24.39 mN/m
same,OFS (surface tension),[3]; [7],16.21 mN/m
"O=C(O)C(F)(F)C(F)(F)C(F)(F)C(F)(F)C(F)(F)C(F)(F)C(F)(F)F [Perfluorooctanoic acid, reference compound]",OFS (surface tension),[3]; [6],55.68** mN/m
same,OFS (surface tension),[3]; [7],16 mN/m
"Cl.Cn1ccnc1SCCC(F)(F)C(F)(F)C(F)(F)C(F)(F)C(F)(F)C(F)(F)F [1-methyl-2-((1H,1H,2H,2H-perfluorooctyl)thio)imidazoliumchloride]",Solubility in water,[2]; values not exact,1750 mg/mL
"Cn1cc[n+](CCC(F)(F)C(F)(F)C(F)(F)C(F)(F)C(F)(F)C(F)(F)F)c1SCCC(F)(F)C(F)(F)C(F)(F)C(F)(F)C(F)(F)C(F)(F)F.[Cl-] [3-(1H,1H,2H,2H-perfluorooctyl)-2-((1H,1H,2H,2H-perfluorooctyl)thio)-1-methyl-1H-imidazolium chloride]",OFS (static surface tension),[4]; c 0.0025 wt % in water,40.74 mN/m
same,OFS (static surface tension),[4]; c 0.0050 wt % in water,21.29 mN/m
same,OFS (static surface tension),[4]; c 0.0075 wt % in water,18.89 mN/m
same,OFS (static surface tension),[4]; c 0.0100 wt % in water,16.29 mN/m
same,OFS (static surface tension),[4]; c 0.0250 wt % in water,14.43 mN/m
same,OFS (static surface tension),[4]; c 0.0500 wt % in water,15.05 mN/m
same,OFS (static surface tension),[4]; c 0.0750 wt % in water,15.02 mN/m
same,OFS (static surface tension),[4]; c 0.1000 wt % in water,15 mN/m
same,OFS (static surface tension),[4]; c 0.2500 wt % in water,15.5 mN/m
same,OFS (static surface tension),[4]; c 0.5000 wt % in water,14.5 mN/m
"CC1(C)C2CCC1(CS(=O)(=O)O)C(=O)C2.Cn1ccnc1SCCC(F)(F)C(F)(F)C(F)(F)C(F)(F)C(F)(F)C(F)(F)F [1-methyl-2-((1H,1H,2H,2H-perfluorooctyl)thio)imidazolium-(±)-camphor-10-sulfonate]",Solubility in water,[2]; values not exact,>4000 mg/mL
1-methyl-2-((perfluorohexylethyl)thio)imidazoliumiodide-Co-1-iodoperfluorooctylane [1-iodoperfluorooctyl-Co-complex],Solubility in 3M Novec 71 IPA,[5],20.5 mg/mL
"N.O=C(O)C(F)(F)C(F)OC(F)(F)C(F)(F)C(F)(F)OC(F)(F)F (centres unmarked) [Ammonium-4,8-dioxa-3H-perfluorononanoate, reference compound]",OFS (surface tension),[3]; [6],64.87** mN/m
same,OFS (surface tension),[3]; [7],46.42 mN/m
"Cn1cc[n+](CCCS(=O)(=O)[O-])c1SCCC(F)(F)C(F)(F)C(F)(F)C(F)(F)C(F)(F)C(F)(F)F [Synthesis Example 6, 3-(1-methyl-2-((1H,1H,2H,2H-perfluorooctyl)thio)imidazolium-3-yl) propane-1-sulfonate]",solubility at 5 min,"[2]; values not exact, read-out: Solubility in water",160 mg/mL
same,solubility at 5 min,[2]; read-out: water solubility,~160 mg/mL
same,OFS (surface tension),[3]; [6],29.74* mN/m
same,OFS (surface tension),[3]; [7],24.94 mN/m
"1-methyl-2-((1H,1H,2H,2H-perfluorooctyl)thio)-1H-imidazolium-2-(methacryloyloxy)ethane-1-sulfonate [Synthesis Example 1]",Solubility in water,"[2]; approximately 23° C., ultrasound bath 5 minutes, centrifuged 20 minutes",approximately 430 g/L
same,OFS (surface tension),[3]; c 0.005 % in water,70.28 mN/m
same,OFS (surface tension),[3]; c 0.01 % in water,32.11 mN/m
same,OFS (surface tension),[3]; c 0.1 % in water,20.8 mN/m
same,OFS (surface tension),[3]; [6],23.24 mN/m
same,OFS (surface tension),[3]; [7],16.22 mN/m
"Br.Cn1ccnc1SCCC(F)(F)C(F)(F)C(F)(F)C(F)(F)C(F)(F)C(F)(F)F [1-methyl-2-((1H,1H,2H,2H-perfluorooctyl)thio)imidazoliumbromide]",Solubility in water,[2]; values not exact,1200 mg/mL

# Source: patent US10792633B2, “Composition comprising a fluorine-containing surfactant” (HWK-Kronbichler GmbH, priority 2016, dated 2020)
